How the values were obtained:
[1] = target: Kappa-type opioid receptor (Homo sapiens, UniProt P41145); test: Displacement of [3H]U69593 from kappa opioid receptor
[2] = target: Mu-type opioid receptor (Cavia porcellus, UniProt P97266); test: Displacement of [3H]DAMGO from mu opioid receptor in guinea pig brain membranes; type: cell membranes, Membrane
[3] = target: Kappa-type opioid receptor (Cavia porcellus, UniProt P41144); test: Displacement of [3H]U69593 from kappa opioid receptor in guinea pig brain membranes after 150 mins by scintillation counting; type: cell membranes, Membrane
[4] = target: Delta-type opioid receptor (Rattus norvegicus, UniProt P33533); test: Displacement of [3H]DPDPE from delta opioid receptor in rat brain membranes; type: cell membranes
[5] = target: Sigma non-opioid intracellular receptor 1 (Cavia porcellus, UniProt Q60492); test: Displacement of [3H]-(+)-pentazocine from sigma 1 receptor in guinea pig brain membranes; type: cell membranes, Membrane
[6] = Displacement of [3H]di-o-toylguanidine from sigma 2 receptor in rat liver homogenates; type: tissue-based

Sequence of Mu-type opioid receptor (P97266 whole entry): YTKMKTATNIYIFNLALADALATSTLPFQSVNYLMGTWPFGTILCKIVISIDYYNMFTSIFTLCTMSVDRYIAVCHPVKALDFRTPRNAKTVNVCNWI
Sequence of Sigma non-opioid intracellular receptor 1 (Q60492 whole entry): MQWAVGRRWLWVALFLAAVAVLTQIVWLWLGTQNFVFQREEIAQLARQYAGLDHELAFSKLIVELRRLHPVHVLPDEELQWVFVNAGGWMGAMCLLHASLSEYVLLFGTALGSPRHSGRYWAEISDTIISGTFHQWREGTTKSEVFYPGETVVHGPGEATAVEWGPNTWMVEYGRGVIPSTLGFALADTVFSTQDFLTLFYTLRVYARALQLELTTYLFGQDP
Sequence of Kappa-type opioid receptor (Cavia porcellus, UniProt P41144) (P41144 whole entry): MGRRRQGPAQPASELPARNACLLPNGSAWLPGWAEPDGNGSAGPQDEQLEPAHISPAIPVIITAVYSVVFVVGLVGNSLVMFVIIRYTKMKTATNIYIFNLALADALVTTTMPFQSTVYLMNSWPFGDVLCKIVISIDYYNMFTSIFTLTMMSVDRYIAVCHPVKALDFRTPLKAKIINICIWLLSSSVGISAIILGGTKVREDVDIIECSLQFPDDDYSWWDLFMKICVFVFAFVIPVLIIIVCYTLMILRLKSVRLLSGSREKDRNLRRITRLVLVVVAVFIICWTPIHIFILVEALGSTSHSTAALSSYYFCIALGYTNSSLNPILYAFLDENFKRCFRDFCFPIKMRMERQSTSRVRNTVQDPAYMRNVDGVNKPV
Sequence of Delta-type opioid receptor (P33533 whole entry): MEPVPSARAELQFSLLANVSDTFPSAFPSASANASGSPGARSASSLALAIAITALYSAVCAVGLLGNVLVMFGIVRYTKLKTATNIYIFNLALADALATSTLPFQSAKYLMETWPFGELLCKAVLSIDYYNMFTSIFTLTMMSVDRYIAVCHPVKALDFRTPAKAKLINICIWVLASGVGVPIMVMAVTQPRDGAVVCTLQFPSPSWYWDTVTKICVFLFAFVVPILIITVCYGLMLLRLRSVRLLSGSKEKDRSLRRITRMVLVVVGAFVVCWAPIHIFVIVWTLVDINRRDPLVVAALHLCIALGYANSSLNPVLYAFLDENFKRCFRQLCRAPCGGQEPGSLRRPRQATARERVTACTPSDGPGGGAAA
Sequence of Kappa-type opioid receptor (Homo sapiens, UniProt P41145) (P41145 whole entry): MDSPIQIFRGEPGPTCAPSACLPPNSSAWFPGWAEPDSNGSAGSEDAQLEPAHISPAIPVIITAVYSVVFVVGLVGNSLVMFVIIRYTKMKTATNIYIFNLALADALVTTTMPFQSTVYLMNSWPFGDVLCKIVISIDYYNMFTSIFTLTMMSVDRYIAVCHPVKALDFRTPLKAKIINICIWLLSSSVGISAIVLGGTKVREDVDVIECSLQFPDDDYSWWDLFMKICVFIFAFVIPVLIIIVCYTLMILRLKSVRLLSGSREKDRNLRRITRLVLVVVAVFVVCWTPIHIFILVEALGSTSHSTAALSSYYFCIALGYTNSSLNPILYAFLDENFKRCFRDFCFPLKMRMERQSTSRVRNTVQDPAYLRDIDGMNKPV

| Compound | Ki [1] [µM] | Ki [2] [µM] | Ki [3] [µM] | Ki [4] [µM] | Ki [5] [µM] | Ki [6] [µM] |
| --- | --- | --- | --- | --- | --- | --- |
| COC(=O)N1CCN(C(=O)Cc2ccc(Cl)c(Cl)c2)[C@H](CN2CCCC2)C1 | 0.00045 |  |  |  |  |  |
| COC(=O)N1CC2C(N3CCCC3)CCCC1CN2C(=O)Cc1ccc(Cl)c(Cl)c1 (racemic) |  | > 1 | 0.333 | > 1 | 0.452 |  |
| COC(=O)N1CC2C(N3CCCC3)CCCC1CN2C(=O)Cc1ccc(Cl)c(Cl)c1 (stereo in doubt; 9) |  | > 1 | 0.065 | > 1 | > 1 | > 1 |
| O=C(Cc1ccc(Cl)c(Cl)c1)N1CC2CCCC(N3CCCC3)C1CN2Cc1ccccc1 (racemic; 14) |  | > 1 | 0.378 | 0.15 | 0.221 | > 1 |
| O=C(Cc1ccc(Cl)c(Cl)c1)N1CCN2CC[C@H](N3CCCC3)[C@H]1C2 (relative stereo) |  |  | 0.073 |  |  |  |
| O=C(Cc1ccc(Cl)c(Cl)c1)N1CC2CCCC(N3CCCC3)C1CN2Cc1ccccc1 (racemic; 26) |  | > 1 | 0.314 | 0.324 | 0.175 |  |
| COc1ccc(CN2CC3CCCC(N4CCCC4)C2CN3Cc2ccccc2)cc1 (stereo in doubt; 25) |  |  |  |  | 0.238 | 0.203 |
| CC(C)=CCN1CC[C@]2(C)c3cc(O)ccc3C[C@H]1[C@H]2C [(+)-PENTAZOCINE] |  |  |  |  |  | 0.058 |
| COC(=O)N1CCN(C(=O)Cc2ccc(Cl)c(Cl)c2)[C@@H]([C@@H](C)N2CCCC2)C1 | 0.00031 |  |  |  |  |  |
| O=C(Cc1ccc(Cl)c(Cl)c1)N1CCN2CC[C@@H](N3CCCC3)[C@H]1C2 (relative stereo) |  |  | > 1 |  |  |  |
| COc1ccc(CN2CC3CCCC(N4CCCC4)C2CN3Cc2ccccc2)cc1 (racemic) |  |  |  |  | 0.531 | > 1 |

From ChEMBL document CHEMBL1781976, “Synthesis of 7,9-diazabicyclo[4.2.2]decanes as conformationally restricted κ receptor agonists: fine tuning of the dihedral angle of the ethylenediamine pharmacophore” (Eur J Med Chem, 2011)
